Row | melting point [°C] | Compound
1 | 78 to 79 | C#CCOc1cccnc1Cl
2 | 191 to 193 | O=C(NCc1ccccn1)Nc1cc(N2CC(Cc3ccccc3)OC2=O)ccn1 (centres undefined)
3 | 75 to 77 | CNCc1cccc2c1ccn2S(=O)(=O)c1ccccc1
4 | 230 | CSc1nc2ccc(Br)cc2c(=O)[nH]1
5 | 234 to 236 | Cn1nc(-c2ccc(Cl)c(NS(C)(=O)=O)c2)c2ccccc2c1=O
6 | 142 to 144 | Cc1ccc(C2Sc3cc(C)ccc3NC(=O)C2=O)cc1 (centres undefined)
7 | 172 | CC(C)N(C(=O)C(Cc1ccc(C#N)cc1)NC(=O)OC(C)(C)C)C(C)C (centres undefined)
8 | 197 to 198 | CC1(C)CN(C2CC3(C)C(CCC4C5CCC(C(=O)CSC#N)C5(C)CC(=O)C43)CC2O)CCO1 (centres undefined)
9 | 168 to 172 | CC(C)(C)c1cc(SCCC(=O)N(C2CCCCC2)C2CCCCC2)cc(C(C)(C)C)c1O
10 | 233 to 235 | CCC1(CC)C(=O)Nc2ccc(-c3ccc(C#N)n3C)cc21
11 | 205 to 206 | CN1C(=O)C(NC(=O)OC(C)(C)C)CC(=O)c2ccccc21 (centres undefined)
12 | 209 | O=C(O)c1sc(-c2cccnc2)nc1C(F)(F)F
13 | 128 to 129 | CCCSc1nc(-c2ccc(Cl)cc2)c(CCC(=O)O)o1
14 | 156 to 158 | Cc1cc(N2CCC3(CC2)OCCO3)c2cccc(Br)c2n1
15 | 227 to 230 | COc1ccc(N2CCOCC2)cc1NC(=O)c1ncc[nH]1
16 | 150 | OC1(Cn2cncn2)CCCCC12OC2c1ccc(Cl)cc1 (centres undefined)
17 | 148 to 150 | CCOC(Cc1ccc(OCCOC2c3ccccc3CCc3ccccc32)cc1)C(=O)O (centres undefined)
18 | 106 | Cc1cccc2c1C(=O)C1(CCOC1=O)S2 (centres undefined)
19 | 128 to 129 | Cc1cc(C2=CC3(CC(C)(C)C2CO)SCCCS3)ccc1F (centres undefined)
20 | 39.7 | O=C(CCC[C@H](O)c1ccc(F)cc1)N1C(=O)OC[C@@H]1c1ccccc1
21 | 111 to 113 | CCOC(=O)C1=C(COCc2nc(C(=O)OCC)cs2)NC(C)=C(C(=O)OC)C1c1ccccc1Cl (centres undefined)
22 | 196 to 197 | COc1ccc(C(=O)N2CCC(Nc3nccc(-c4c(-c5ccc(F)cc5)nc5occn45)n3)CC2)cc1
23 | 189 | CC(O)c1cc(NC(=O)OC(C)(C)C)ccc1NC(=O)OC(C)(C)C (centres undefined)
24 | 128 to 129 | O=C1C(=Cc2ccncc2)CCc2cc(OCCn3ccnc3)ccc21

Row | melting point [°C] | Compound
25 | > 300 | NC(=O)c1ccc2c([N+](=O)[O-])cc3c(c2c1)C(CCl)CN3 (centres undefined)
26 | 145 to 147 | NS(=O)(=O)c1cc2c(s1)SC(CCO)CN2 (centres undefined)
27 | 115 to 117 | CN1C(=S)N(c2ccc(Cl)c(Cl)c2)C(O)C1O (centres undefined)
28 | 250 to 251 | Cc1nn(C)c2c(=O)n(-c3ccc(Cl)c(Cl)c3)cnc12
29 | 64 to 65 | CCN(CC)CCOc1ccc(C(O)(CC)c2cccc(Cl)c2)cc1 (centres undefined)
30 | 152 to 157 | CN(C(=O)c1cc(C(F)(F)F)cc(C(F)(F)F)c1)C(CCCC(=O)O)Cc1c[nH]c2ccccc12 (centres undefined)
31 | 131 to 133 | COC(=O)c1c(C(C)(C)O)nc(C(C)OC)n1Cc1ccc(-c2ccccc2-c2nnnn2C(c2ccccc2)(c2ccccc2)c2ccccc2)cc1 (centres undefined)
32 | 158 to 159 | CN1CC(CCN2CCN(c3ccccn3)CC2)c2nc3ccccc3n2C1=O (centres undefined)
33 | 225 to 226 | CCCc1nc2c(N)nc3ccc(-c4ccc(CN)cc4)cc3c2s1
34 | 131 to 132 | Fc1ccc2c(C3CCN(CCN4CCOCC4)CC3)noc2c1
35 | 49 to 51 | CCOC(=O)CC1(c2ccccc2)CNC(=O)C1 (centres undefined)
36 | 240 to 242 | Cn1c(C(F)(F)F)cc(=O)n(-c2ccc3snc(CC(=O)O)c3c2)c1=O
37 | 142 to 144 | NC(=O)CCC1OC(=O)NC1c1cc(F)c(-n2nnc(Cc3cccs3)n2)c(F)c1 (centres undefined)
38 | 234 to 238 | CN(C(=O)CN1C(=O)C2(COc3cc4c(cc32)CCO4)c2ccccc21)c1ccccc1 (centres undefined)
39 | 163 to 164 | CNC(=O)Nc1cccc(C(=O)Nc2ccccn2)c1
40 | 172 to 175 | CCN(CC)C(=O)N1CCC(C(O)(c2ccc(Cl)cc2)c2ccc(Cl)cc2)CC1
41 | 157 to 159 | Cc1c(-c2cnccn2)c(N2CC[C@H](N(C)C)C2)c2oc(C3CC3)nc2c1C#N
42 | 135 to 137 | COc1nc(CC(=O)O)c([N+](=O)[O-])cc1C
43 | 62 to 64 | CC1(C)COC(c2ccc(Br)cc2)OC1
44 | 224 to 226 | CS(=O)(=O)c1ccc(-c2[nH]c3ccccc3c2-c2ccc(F)cc2)cc1
45 | 118 to 119 | COc1cc(-c2ncnc(C(F)F)c2Cl)c(F)cc1Cl
46 | > 300 | COC[C@H]1CCCN1NC(=O)Nc1cccc2c1C(=O)c1c-2n[nH]c1-c1ccc(C(=O)N2CCN(C(=O)OC(C)(C)C)CC2)s1
47 | 106 to 110 | O=C(c1ccccc1)C(Cl)Cn1cnc(Cl)c1 (centres undefined)
48 | 68 to 70 | S=Cc1cccc(Cl)c1Cc1ccccc1

Row | melting point [°C] | Compound
49 | 248 to 252 | O=C(Nc1ccc(C(F)(F)F)cc1)NC1CCN(S(=O)(=O)c2ccccc2)CC1
50 | 33 to 35 | O=[N+]([O-])c1ccccc1Oc1ccc(Cl)cc1
51 | 113 to 114 | COc1cc(CCCn2cncn2)ccc1OCc1coc(/C=C/c2ccccc2)n1
52 | 192 to 193 | CNc1cc(F)ccc1-c1c(C#N)n[nH]c1-c1ccc(S(C)(=O)=O)cc1
53 | 113 to 114 | Cc1ccc([N+](=O)[O-])c(OCCOc2cc(C(=O)OC(C)(C)C)ccc2[N+](=O)[O-])c1
54 | 98 | O=C1c2ccccc2C(=O)N1OCCCN1CCOCC1
55 | 158 to 159 | CC(C)(C)c1cc(SCCC(=O)NNC=O)cc(C(C)(C)C)c1O
56 | 83 to 86 | CC1(C)COc2ccc(C[C@H](N)[C@H](O)c3cccc(Cl)c3)cc21 (racemic)
57 | 32 | O=Cc1ccc(OC[C@H]2CO2)cc1
58 | 220 to 224 | Cc1c(CC[Si](Cl)(Cl)Cl)c(CC[Si](Cl)(Cl)Cl)c(C)c(CC[Si](Cl)(Cl)Cl)c1CC[Si](Cl)(Cl)Cl
59 | 229 to 231 | O=C1CCC(N2C(=O)c3cccc(OCc4ccc(CN5CCN(S(=O)(=O)C(F)(F)F)CC5)cc4)c3C2=O)C(=O)N1 (centres undefined)
60 | 88 to 108 | Cc1ccc(C(=C(C=CC=O)c2nnnn2C)c2ccc(C)cc2F)c(F)c1
61 | 122 to 123 | N#CCCCC(=NO)c1ccc(Cl)c(Cl)c1
62 | 175 to 178 | CC(=N)NS(=O)(=O)C=Cc1ccccc1[N+](=O)[O-]
63 | 205 to 206 | N=C(NO)c1ccc(-c2ccc(-c3ccc(C(=N)NO)o3)o2)cc1
64 | 233 to 235 | Cc1cc(CCC(=O)O)cc(-c2nc(=O)c3ccccc3s2)n1
65 | 88 to 89 | CCn1c(=O)cc(C2CCCCC2)c2cccnc21
66 | 111 to 112 | CN1c2c(Cl)cc(CC(=O)O)cc2CCC1c1ccccc1 (centres undefined)
67 | 184 to 186 | Clc1ncnc2c1c(I)cn2C1CCOC1 (centres undefined)
68 | 132 | OCc1nn(-c2ccccc2Cl)cc1-c1ccccc1
69 | 137 to 139 | CCCCC(=O)Nc1ccc2c(c1)C(=O)OC2CCCC (centres undefined)
70 | 182 to 183 | Cc1cc(C)nc(Sc2ccnc3cc(Cl)cc(Cl)c23)n1
71 | 183 to 185 | Cc1ccc(C(=O)NC(NC(=S)Nc2cc(F)ccc2F)C(F)(F)F)cc1 (centres undefined)
72 | 69 to 70 | CON(C)C(=O)c1ccc(C(F)(F)F)cc1O

Row | melting point [°C] | Compound
73 | 229 to 232 | O=C(Nc1cccc([N+](=O)[O-])c1)c1ccc([N+](=O)[O-])cc1
74 | 160 to 166 | CCCCc1nc2c(N)nc3ccccc3c2n1CCCCNC(=O)Nc1cccc(NC(=O)NCCCCn2c(CCCC)nc3c(N)nc4ccccc4c32)c1
75 | 114 to 118 | CCN(CC)C(=O)Nc1ccc(S(=O)(=O)N2C(=O)C(NCCOCCO)(c3ccccc3Cl)c3cc(Cl)ccc32)cc1 (centres undefined)
76 | 74 to 75 | C=CCSc1cn(C)cc(-c2cccc(C(F)(F)F)c2)c1=O
77 | 115 to 118 | Cc1cc(NCc2ccc3c(c2)OCO3)nc(SCC#N)n1
78 | 152 to 153 | CC1(C)CC(NC(=O)Nc2ccc(C(F)(F)F)cc2)CC(C)(C)C1=O
79 | 188 to 191 | COc1ccc(N2CCc3c2c2cccc(OC)c2[nH]c3=O)c(C)c1
80 | 157 | O=c1ccc2c(-c3ccccc3)cc(N3CCN(Cc4ccccc4)CC3)n2cc1
81 | 160 to 162 | COCOc1cc(F)ccc1-c1cc(-c2cccc(C(=O)OC)c2)c(C#N)c(NC(=O)c2ccco2)n1
82 | 128 to 130 | Cc1cccc2c1CN(S(C)(=O)=O)CCS2
83 | 84 to 88 | Cc1nnc(CNC(=O)[C@H](Cc2ccccc2)NC(=O)OCc2ccccc2)n1-c1ccc(Cl)cc1C(=O)c1ccccc1
84 | 75 to 76 | CCOC(=O)CCc1cn(Cc2ccccc2)nc1O
85 | 59 to 60 | O=C(O)C(Cl)(Cl)CCCCCCCCCCCCBr
86 | 116 to 118 | COc1cc(NCCCN(C)Cc2ccccc2)ccc1C(N)=O
87 | 214 to 216 | NS(=O)(=O)c1ccc(NC(=O)CCl)cc1Cl
88 | 99 to 110 | CCCN(CCCCc1coc2c(OC)cccc12)C1COc2c(F)ccc(C(N)=O)c2C1 (centres undefined)
89 | 64 to 66 | C=CCCN(c1ccc(OC)cc1)S(=O)(=O)c1c(F)c(F)c(F)c(F)c1F
90 | 171 to 173 | CN(C)C(=O)Sc1ccc2ncc([N+](=O)[O-])c(-c3ccccc3)c2c1
91 | 333 | Cn1c(=O)c(=O)[nH]c2c3ccccc3ccc21
92 | 188 to 190 | C#CCOC(=O)c1cccnc1C1=NC(C)(C(C)C)C(=O)N1 (centres undefined)
93 | 76.4 | O=C(Cn1cccn1)c1ccc(F)cc1F
94 | 60 to 65 | COc1ccc2c(c1)c(CC(=O)OCCNC(=O)C1=CN(C)C=CC1)c(C)n2C(=O)c1ccc(Cl)cc1
95 | 149 to 150 | O=c1cc(C(F)(F)F)ncn1-c1c(Cl)cc(C(F)(F)F)cc1[N+](=O)[O-]

Row | Compound | melting point [°C]
96 | C[C@@H]1N(C)C(C)(C)CO[C@@]1(O)c1cccc(Cl)c1 | 128 to 129
97 | CN(C)C[C@H]1CCSc2ccccc2[C@]1(O)c1cccc(O)c1 (racemic) | 188 to 190
98 | Nc1ccc(C2CCNCC2)cc1 | 85 to 87
99 | COC(=O)C1=CC(C(=O)c2cc(Br)cc(Br)c2O)=CN2CCc3c([nH]c4ccccc34)C12C(=O)OC (centres undefined) | 131

Source: a melting point compilation (Tetko et al.; mined from patent text by program, amines drawn as free bases though some values may be those of a salt)
